Source: ChEMBL document CHEMBL1777750, “Design strategies to target crystallographic waters applied to the Hsp90 molecular chaperone” (Bioorg Med Chem Lett, 2011)
pKd, pKi: −log10 of the molar value.

How the values were obtained:
Heat shock protein HSP90 = Heat shock protein HSP90 (Homo sapiens, UniProt P07900+P08238); assay: Inhibition of HSP90 in human H1299 cells assessed as degradation of Akt protein after 24 hrs by luminex assay; type: cell-based
[1] = Displacement of tritium-labeled resorcinol amide ligand from HSP90 by scintillation proximity assay
[2] = Binding affinity to HSP90 by isothermal titration calorimetry assay

| Structure (SMILES) | IC50 (Heat shock protein HSP90) | pKi [1] | pKd [2] |
| --- | --- | --- | --- |
| COc1cc(-c2nc(C)nc3[nH]c(C)c(C#N)c23)c(Cl)cc1Cl | 0.7 µM |  |  |
| COc1cc(-c2nc(C)nc3[nH]cc(F)c23)c(Cl)cc1Cl |  | 6.70 |  |
| COc1cc(-c2nc(C)nc3[nH]cc(Cl)c23)c(Cl)cc1Cl | 2 µM | 6.70 |  |
| COc1cc(-c2nc(C)nc3[nH]cc(C(C)=O)c23)c(Cl)cc1Cl |  | 6.70 |  |
| COc1cc(-c2nc(C)nc3[nH]c(C)c(Cl)c23)c(Cl)cc1Cl |  | 7.00 |  |
| CCc1[nH]c2nc(C)nc(-c3cc(OC)c(Cl)cc3Cl)c2c1C#N | 0.5 µM | 7.82 |  |
| COc1cc(-c2nc(C)nc3[nH]cc(C#N)c23)c(Cl)cc1Cl | 1 µM |  |  |
| COc1cc(-c2nc(C)nc3[nH]c(C)cc23)c(Cl)cc1Cl |  | 5.70 |  |

The remaining lines, values ahead:

| IC50 (Heat shock protein HSP90) | pKi [1] | pKd [2] | Structure (SMILES) |
| --- | --- | --- | --- |
| 27 µM | 5.57 |  | COc1cc(Cl)ccc1-c1cc(C)nc(N)n1 |
| 45 µM | 6.52 |  | CC(C)(C)OC(=O)n1cccc1-c1cc(Cl)nc(N)n1 |
| 10.5 µM | 6.46 | 6.98 | Cc1cc(-c2ccc(Cl)cc2Cl)nc(N)n1 |
|  | 5.77 |  | COc1cc(-c2nc(C)nc3[nH]ccc23)c(Cl)cc1Cl |
|  | 5.10 | 5.46 | COc1ccccc1-c1cc(C)nc(N)n1 |
|  | 5.43 |  | Cc1cc(-c2cccn2C(=O)OC(C)(C)C)nc(N)n1 |
| 10 µM | 6.85 |  | COc1cc(-c2cc(C)nc(N)n2)c(Cl)cc1Cl |
|  | 5.00 |  | COc1cc(-c2cc(N)nc(C)n2)c(Cl)cc1Cl |
| > 10 µM | 4.66 |  | Cc1cc(-c2ccccc2)nc(N)n1 |
